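Step 1: Grow cells in 96-well plates. Step 2: Expose to compound for 48 hours at 5 concentrations. Step 3: Interpolate endpoints linearly; if unreached, use highest concentration. Here, GI50 denotes the concentration required for 50% inhibition of growth.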 Active and inactive are the calls of the source. Rule as the data show it: active = GI50 up to about 1.1 µM and inactive = higher.

Among the test systems are ACHN; OVCAR-8; EKVX; NCI-H460; T47D; A498; SNB-19; OVCAR-5; SK-MEL-2; SK-MEL-28; TK-10; DU-145; SR; OVCAR-3; M14; HCC 2998; UACC-62; HL-60; SF-539.
Holding throughout (assay): inhibition of tumour cell growth, NCI panel, 48 h

Consider `O=C(O)C1OC1C(=O)O` (stereo not drawn), for which the GI50 in the assay with ACHN, in the assay on OVCAR-8, in the assay on EKVX, in the assay on NCI-H460, with T47D and with A498 was > 100 µM (inactive) each time. Also, the GI50 in the assay with SNB-19, with OVCAR-5, in the assay on SK-MEL-2, in the assay with SK-MEL-28, with TK-10 and in the assay with DU-145 was > 100 µM (inactive) in each case. Besides, the GI50 in the assay with SR, with OVCAR-3, in the assay with M14, with HCC 2998 and in the assay with UACC-62 was > 100 µM (inactive) in each case.

Consider `CCN(CC)c1ccc(/C=C2\CCc3ccc([N+](=O)[O-])cc3C2=O)cc1`, for which the GI50 was 8.85 µM (inactive) in the assay with ACHN; 3.73 µM (inactive) with OVCAR-8; 5.27 µM (inactive) with EKVX; 3.84 µM (inactive) with NCI-H460; 4.55 µM (inactive) in the assay with T47D; 2.56 µM (inactive) with A498. For the same compound, the GI50 was 1.42 µM (inactive) in the assay on SNB-19; > 100 µM (inactive) in the assay with OVCAR-5; 3.46 µM (inactive) in the assay with SK-MEL-28; 2.86 µM (inactive) with TK-10; 6.01 µM (inactive) in the assay on DU-145; 0.249 µM (active) with HL-60. In addition, the GI50 with SR is 0.324 µM (active); in the assay on OVCAR-3, 1.93 µM (inactive); in the assay on M14, 3.54 µM (inactive); in the assay with HCC 2998, 10.1 µM (inactive); with UACC-62, 1.29 µM (inactive); in the assay on SF-539, 2.25 µM (inactive).

Turning to `COc1cccc(/N=N/C(=N/NC(=O)c2ccc(C)cc2)c2ccc(N(CCC#N)CCC#N)cc2OC)c1`, the GI50 with ACHN is > 100 µM (inactive); with OVCAR-8, > 100 µM (inactive); in the assay on EKVX, 22.9 µM (inactive); in the assay on NCI-H460, 3.76 µM (inactive); with T47D it was > 100 µM (inactive); in the assay with A498, > 100 µM (inactive). Besides, the GI50 in the assay on SNB-19 was > 100 µM (inactive); in the assay on OVCAR-5 it was 24.4 µM (inactive); in the assay with SK-MEL-2, > 100 µM (inactive); in the assay on SK-MEL-28, > 100 µM (inactive); in the assay on TK-10, 8.05 µM (inactive); in the assay with DU-145, > 100 µM (inactive). Further, the GI50 in the assay with SR was > 100 µM (inactive); in the assay with OVCAR-3, > 100 µM (inactive); in the assay with M14, > 100 µM (inactive); in the assay on HCC 2998, 8.28 µM (inactive); in the assay with UACC-62, > 100 µM (inactive).

Regarding `N#CS/C(Cl)=C(/C(Cl)=C(Cl)Cl)[N+](=O)[O-]`, the GI50 in the assay with ACHN was 31.3 µM (inactive); with OVCAR-8, 34.4 µM (inactive); with EKVX, > 100 µM (inactive); in the assay with NCI-H460, 42.8 µM (inactive); in the assay with T47D it was 37.2 µM (inactive); with A498 it was 79.6 µM (inactive). Further, the GI50 in the assay on SNB-19 is 1.89 µM (inactive); in the assay with OVCAR-5, > 100 µM (inactive); in the assay with SK-MEL-28, 29.4 µM (inactive); in the assay on TK-10 it was > 100 µM (inactive); in the assay with DU-145, > 100 µM (inactive); in the assay with HL-60, 29.1 µM (inactive). Moreover, the GI50 with SR is 24.7 µM (inactive); in the assay on OVCAR-3 it was 21.9 µM (inactive); in the assay on M14 it was 34.4 µM (inactive); in the assay with HCC 2998 it was 39.8 µM (inactive); in the assay on UACC-62, 47.2 µM (inactive); in the assay with SF-539 it was 32.9 µM (inactive).

As to `CCCc1nc(Cl)c(Cl)c(Cl)n1`, the GI50 with OVCAR-8 is 18.7 µM (inactive); with EKVX, 21.4 µM (inactive); in the assay on NCI-H460, 38.9 µM (inactive); in the assay on T47D it was 17.5 µM (inactive); in the assay with A498 it was > 100 µM (inactive); in the assay with SNB-19, 62.1 µM (inactive). Moreover, the GI50 with OVCAR-5 is 31.8 µM (inactive); in the assay with SK-MEL-28, 56.5 µM (inactive); in the assay on TK-10 it was > 71.9 µM (inactive); in the assay with DU-145 it was 35 µM (inactive); with HL-60, 15.4 µM (inactive); in the assay with SR, 5.78 µM (inactive). For the same compound, the GI50 is 6.64 µM (inactive) with OVCAR-3; 25.4 µM (inactive) with M14; 0.556 µM (active) in the assay with HCC 2998; 36.5 µM (inactive) in the assay with UACC-62; 26.9 µM (inactive) with SF-539.

For `CCC(=O)Nc1ncnc2ncn(C(=O)CC)c12`, the GI50 with ACHN, in the assay with OVCAR-8, in the assay on EKVX, in the assay with NCI-H460, in the assay on T47D and in the assay with A498 was > 100 µM (inactive) in each case. Besides, the GI50 in the assay on SNB-19, in the assay with OVCAR-5, in the assay on SK-MEL-2, in the assay with SK-MEL-28, in the assay on TK-10 and with DU-145 was > 100 µM (inactive) each time. The GI50 in the assay with SR, with OVCAR-3, in the assay on M14, in the assay on HCC 2998 and in the assay with UACC-62 was > 100 µM (inactive) each time.

As for `CCOC(=O)N1CCN(c2c(C)nc(C)nc2O)CC1`, the GI50 in the assay with ACHN, in the assay with OVCAR-8, in the assay on EKVX, with NCI-H460, in the assay with T47D and in the assay with A498 was > 100 µM (inactive) each time. For the same compound, the GI50 in the assay with SNB-19, with SK-MEL-28, in the assay with TK-10, with DU-145, in the assay with HL-60 and in the assay with SR was > 100 µM (inactive) each time. Further, the GI50 in the assay with OVCAR-3, in the assay with M14, in the assay with HCC 2998, in the assay on UACC-62 and with SF-539 was > 100 µM (inactive) each time.

As for `O=C1Nc2ccccc2/C1=N/NC(=S)N1CCCCCC1`, the GI50 with ACHN was 0.824 µM (active); in the assay on OVCAR-8, 0.895 µM (active); in the assay on EKVX, 0.851 µM (active); in the assay with NCI-H460, 0.09 µM (active); in the assay with T47D it was 3.78 µM (inactive); with A498 it was 1.07 µM (active). Besides, the GI50 is 1.54 µM (inactive) in the assay on SNB-19; 2.59 µM (inactive) in the assay with OVCAR-5; 1.66 µM (inactive) with SK-MEL-2; 1.87 µM (inactive) in the assay on SK-MEL-28; 1.8 µM (inactive) in the assay with TK-10; 2.2 µM (inactive) in the assay on DU-145. Moreover, the GI50 with SR was 0.212 µM (active); in the assay with OVCAR-3, 0.163 µM (active); in the assay with M14 it was 0.684 µM (active); in the assay on HCC 2998 it was 1.52 µM (inactive); in the assay on UACC-62 it was 0.489 µM (active); with SF-539 it was 0.168 µM (active).

For `O=C1c2ccccc2C(=O)c2c(NCCNC(=O)C3CCCN3)ccc(NCCNC(=O)C3CCCN3)c21` (stereo not drawn), the GI50 in the assay on ACHN is 53.7 µM (inactive); in the assay with OVCAR-8 it was 33.9 µM (inactive); in the assay on EKVX, > 100 µM (inactive); in the assay on T47D it was 30 µM (inactive); in the assay on SNB-19, 44.1 µM (inactive); with OVCAR-5, 51.4 µM (inactive). Also, the GI50 with SK-MEL-2 is > 100 µM (inactive); with SK-MEL-28, 41.7 µM (inactive); in the assay with TK-10, > 100 µM (inactive); in the assay on DU-145, 70.1 µM (inactive); in the assay with HL-60, 31 µM (inactive); with SR, 22 µM (inactive). The GI50 in the assay on OVCAR-3 was 69.8 µM (inactive); in the assay on M14, > 100 µM (inactive); with HCC 2998 it was 35.9 µM (inactive); in the assay on UACC-62 it was 38.7 µM (inactive); in the assay on SF-539, 44.6 µM (inactive).

On to `O=C(CC(C(=O)c1ccsc1)c1ccccc1)c1cccs1` (stereo not drawn), for which the GI50 with ACHN is 67.6 µM (inactive); in the assay with OVCAR-8 it was 58.1 µM (inactive); in the assay on EKVX it was > 100 µM (inactive); in the assay with NCI-H460 it was 27.1 µM (inactive); in the assay with T47D, 11.8 µM (inactive); in the assay with A498, 77.6 µM (inactive). Moreover, the GI50 was > 100 µM (inactive) in the assay on OVCAR-5; > 100 µM (inactive) with SK-MEL-28; > 100 µM (inactive) in the assay on TK-10; > 100 µM (inactive) with DU-145; 41.1 µM (inactive) in the assay with HL-60; 57.4 µM (inactive) with SR. The GI50 in the assay with OVCAR-3 is 96.8 µM (inactive); in the assay on M14, 24.8 µM (inactive); with HCC 2998 it was 85.3 µM (inactive); with UACC-62, 24.8 µM (inactive); in the assay with SF-539 it was > 100 µM (inactive).

Take `O=C1c2ccccc2NC2C(O)c3ccccc3N12` (stereo not drawn): the GI50 with ACHN was 40.8 µM (inactive); in the assay on OVCAR-8, 49.1 µM (inactive); in the assay with EKVX it was 35.4 µM (inactive); with NCI-H460 it was 13.2 µM (inactive); in the assay on T47D, 6.5 µM (inactive); with A498, 20.6 µM (inactive). Moreover, the GI50 in the assay with SNB-19 is > 100 µM (inactive); in the assay on OVCAR-5, 82.2 µM (inactive); in the assay with SK-MEL-2 it was 52 µM (inactive); with TK-10 it was 99.3 µM (inactive); with DU-145, 45.6 µM (inactive); in the assay on SR, 38.4 µM (inactive). Also, the GI50 in the assay on OVCAR-3 was 37 µM (inactive); in the assay on M14 it was 81.3 µM (inactive); in the assay on HCC 2998, 42.9 µM (inactive); in the assay with UACC-62 it was 23.6 µM (inactive); in the assay with SF-539, > 100 µM (inactive).

On to `O=C(/C=C/c1ccc(Cl)cc1)c1ccc(Cl)s1`, for which the GI50 in the assay with ACHN was 87.3 µM (inactive); in the assay on OVCAR-8 it was 55.8 µM (inactive); with EKVX, 68.9 µM (inactive); with NCI-H460, 67.8 µM (inactive); with T47D, 46 µM (inactive); in the assay with A498, 19.1 µM (inactive). The GI50 in the assay on SNB-19 is 50.5 µM (inactive); in the assay on OVCAR-5, > 100 µM (inactive); in the assay on SK-MEL-28, 50.1 µM (inactive); in the assay with TK-10, 85.3 µM (inactive); in the assay with DU-145, > 100 µM (inactive); in the assay with HL-60, 24.3 µM (inactive). The GI50 is 34.3 µM (inactive) in the assay with SR; 58.7 µM (inactive) in the assay on OVCAR-3; 44.1 µM (inactive) with M14; 22.2 µM (inactive) in the assay with HCC 2998; 23.4 µM (inactive) with UACC-62; 36.5 µM (inactive) with SF-539.

The values above are taken from ChEMBL document CHEMBL1201862, “PubChem BioAssay data set” (2004).
